Experimental data from PubChem BioAssay AID1919009 (Molecular Pharmacology Branch, DTP, NCI, 2023).
“And” between values parts separate entries of the source, which are not always exact repeats. Identical values can stand only once.

System: K24384-001-R-PDC complex spheroid growth
Experiment: Anticancer human tumor K24384-001-R-PDC patient-derived pancreatic adenocarcinoma cell line growth inhibition [AhR]
Details: for viability, T/C: stronger effect = lower value
From the text: Multicellular complex tumor spheroid response to aryl hydrocarbon receptor antagonists in combination with a variety of drugs and investigational agents in selected tumor cell lines
The current study was undertaken to assess response to aryl hydrocarbon receptor antagonists in combination with standard-of-care drugs and investigational agents in solid tumor complex spheroid models. Complex spheroids include a stromal component modeled by human endothelial cells (HUVEC) and fibroblasts modeled by human mesenchymal stem cells (MSCs). The concentration ranges selected for each drug and investigational agent were based upon clinically achievable concentrations if the clinical Cmax of the agent was known.
Compounds. The drugs and investigational agents: BAY 2416964 (NSC825713), GNF351 (NSC835774), CH-223191 (NSC835775), CPI-455 (NSC825282), aza-TdCyd (NSC777586), decitabine (NSC127716), belinostat (NSC758774), entinostat (NSC756642), pevonedistat (NSC761192), tazemetostat (NSC777109), talazoparib (NSC765396), olaparib (NSC753686), selinexor (NSC780203), nedisertib (M3814, NSC802822), bortezomib (NSC756655), venetoclax (NSC766270), doxorubicin (NSC123127), elimusertib (BAY189344, NSC800525), ceralasertib (AZD6738, NSC777638), TAK-243 (NSC785004), alisertib (NSC759677), etoposide (NSC141540), topotecan (NSC609699), eribulin (NSC707389), gemcitabine (NSC613327), carboplatin (NSC241240), cisplatin (NSC119875), and SN-38 (NSC673596) were obtained from the National Cancer Institute (NCI) Developmental Therapeutics Program Chemical Repository (32). The FDA-approved anticancer drug set is available from the Developmental Therapeutics Program at https://dtp.cancer.gov/organization/dscb/obtaining/available plates.htm. […] The stock solutions were prepared in dimethyl sulfoxide (DMSO, Sigma-Aldrich, St. Louis, MO, cat. D2650), except for the platinum compounds which were prepared in saline (Quality Biological, Gaithersburg, MD, cat. 114-055-101), at 800-fold the tested concentration and stored at -70 degrees C prior to their use. All drugs and investigational agents were tested over a range starting from a high concentration at or near the clinical Cmax and decreasing in half-log increments. If the clinical Cmax for an agent had not been determined, the highest concentration tested was 10 microM (Table 1).
Cell Culture. All cells were maintained in an incubator at 37 degrees C and 5% CO2 with 95% humidity. The PDC lines were cultured according to standard operating procedures established by the NCI PDMR (https://pdmr.cancer.gov). Briefly, all PDCs were thawed and cultured in Matrigel-coated flasks prepared with a working solution of 1X Ham's F-12 nutrient mix, without supplementation (Invitrogen, Waltham, MA, cat. 11765054), 100 U/mL penicillin-streptomycin (Invitrogen, cat. 15140122), and 2.5% Matrigel (Corning Inc., Corning, NY, cat. 354248) for the first three passages. All PDCs were cultured in complete DMEM/F-12 media containing advanced DMEM/F-12 (Invitrogen, cat. 12634028), 4.9% defined fetal bovine serum, heat inactivated (HyClone Laboratories Inc., Logan, UT, cat. SH30070.03HI), 389 ng/mL hydrocortisone (Sigma-Aldrich, cat. H4001), 9.7 ng/mL human EGF recombinant protein (Invitrogen, cat. PHG0313), 23.4 microg/mL adenine (Sigma-Aldrich, cat. A2786), 97.3 U/mL penicillin-streptomycin (Invitrogen, cat. 15140122), 1.9 mM L-glutamine (Invitrogen, cat. 25030081), and 9.7 microM Y-27632 dihydrochloride (Tocris Bioscience, Bristol, United Kingdom, cat. 1254). The PDCs were cultured in complete DMEM/F12 media without 10 microM Y-27632 dihydrochloride for at least two passages prior to the screen. The established cell lines NCI-H1341 and […] were cultured in DMEM/F-12, HEPES (Invitrogen, cat. 11330032), 5% defined fetal bovine serum (HyClone Laboratories Inc., cat. SH30070.03), ITS premix universal culture supplement [insulin (5 microg/mL), transferrin (5 microg/mL), and selenious acid (5 ng/mL)] […]
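For viability, T/C in this document: percent of DMSO vehicle-treated spheroid viability set as 100%.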

SMILES	viability, T/C (compound 0.0316 µM)	viability, T/C (compound 0.1 µM)	viability, T/C (compound 0.316 µM)	viability, T/C (compound 1 µM)	viability, T/C (compound 3.16 µM)	viability, T/C (compound 10 µM)	IC50 (curve of compound)	other results
COc1cccc2c1C(=O)c1c(O)c3c(c(O)c1C2=O)CC(O)(C(=O)CO)CC3OC1CC(N)C(O)C(C)O1 (stereo not drawn)	55.9% and 53.8% and 60.3%	42.6% and 43.3% and 55.6%	27.5% and 27% and 27.3%	7.51% and 8.21% and 8.1%	2.73% and 2.56% and 3.17%	7.73% and 8.61% and 11.3%	55.5 nM and 48.3 nM and 127 nM	
Cc1ccccc1N=Nc1ccc(NC(=O)c2ccnn2C)c(C)c1								IC50 (compound alone, run of 06/14/2022): > 10000 nM
Cc1cncc(-c2nc(NCCc3c[nH]c4ccccc34)c3ncn(C(C)C)c3n2)c1						10.4% [middle of 20 runs]		IC50 (compound alone, run of 06/06/2022): 5.54 µM [middle of 23 runs]
Cn1ncnc1C1c2n[nH]c(=O)c3cc(F)cc(c23)NC1c1ccc(F)cc1 (stereo not drawn)	97% and 97.8% and 98.7%	82% and 81.5% and 75.4%					> 100 nM	viability, T/C (compound 0.000316 µM): 104% and 93.7% and 94.2%; viability, T/C (compound 0.001 µM): 117% and 105% and 102%; viability, T/C (compound 0.00316 µM): 93.1% and 104% (2×); viability, T/C (compound 0.01 µM): 91.7% and 102% and 105%
NS(=O)(=O)OCC1CC(n2ccc3c(NC4CCc5ccccc54)ncnc32)CC1O (stereo not drawn)	102% and 101% and 100%	119% and 96.5% and 107%	107% (2×) and 102%	95.7% and 59% and 75.3%	40.4% and 32.9% and 49.2%	27.5% and 21.6% and 24.1%	2590 nM and 1420 nM and 2770 nM	
Nc1ccccc1NC(=O)c1ccc(CNC(=O)OCc2cccnc2)cc1	94% and 112% and 106%	98% and 108% and 107%	85% and 93.4% and 96.5%	78.2% and 67.5% and 60.9%	43.8% and 43.9% and 45.6%	8.72% and 6.99% and 9.95%	2590 nM and 2280 nM and 2140 nM	
Nc1ccn(C2OC(CO)C(O)C2(F)F)c(=O)n1 (stereo not drawn)	75.8% and 84.6% and 71%	67.7% and 76.7% and 59.5%	50.6% and 52.6% and 41.6%	42.8% and 39.7% and 32.8%	37.3% and 40.7% and 22.7%	28.5% and 31.3% and 20.2%	458 nM and 419 nM and 191 nM	
Nc1ncn(C2CC(O)C(CO)O2)c(=O)n1 (stereo not drawn)	108% and 95.7% and 101%	95.2% and 101% and 82.9%	87.2% and 88.8% and 84.9%	79.4% and 79.5% and 76.8%			> 1000 nM	viability, T/C (compound 0.00316 µM): 111% and 99.4% and 104%; viability, T/C (compound 0.01 µM): 94.1% and 108% and 112%
Nc1ncn(C2CC(O)C(CO)S2)c(=O)n1 (stereo not drawn)							> 300 nM	viability, T/C (compound 0.000949 µM): 110% and 102% and 115%; viability, T/C (compound 0.003 µM): 104% and 111% and 121%; viability, T/C (compound 0.00949 µM): 105% and 93% and 90.2%; viability, T/C (compound 0.03 µM): 98% and 87.8% and 92.5%; viability, T/C (compound 0.0949 µM): 80.2% and 77.9% and 76.2%; viability, T/C (compound 0.3 µM): 81.4% and 64.2% and 70.1%
O=C(C=Cc1cccc(S(=O)(=O)Nc2ccccc2)c1)NO	104% and 118% and 108%	104% and 115% and 114%	96.2% and 116% and 99.6%	78.5% and 87.3% and 81.8%	34.4% and 35.4% and 29.5%	8.12% and 8.37% and 2.97%	2100 nM and 2280 nM and 2000 nM	
O=C(C=Cn1cnc(-c2cc(C(F)(F)F)cc(C(F)(F)F)c2)n1)NNc1cnccn1							246 nM and 245 nM and 422 nM	viability, T/C (compound 0.00949 µM): 103% and 108% and 124%; viability, T/C (compound 0.03 µM): 102% and 118% and 111%; viability, T/C (compound 0.0949 µM): 83.7% and 73.7% and 79.4%; viability, T/C (compound 0.3 µM): 42.4% and 48.4% and 54.7%; viability, T/C (compound 0.949 µM): 29.9% and 28.1% and 41.4%; viability, T/C (compound 3 µM): 22.9% and 24.3% and 29.5%
O=C(c1cc(Cc2n[nH]c(=O)c3ccccc23)ccc1F)N1CCN(C(=O)C2CC2)CC1	104% and 103% and 116%	132% and 100% and 105%	105% and 95.4% and 115%	95.4% and 94.5% and 90.4%	88.2% and 96.2% and 90.5%	82.8% and 62.4% and 76%	> 10000 nM	
